What was measured:
[1] = biological target: Acetylcholinesterase (Electrophorus electricus) (UniProt O42275); settings: at 2 mg/mL
Description: Inhibition of electric eel AChE at 2 mg/ml by Ellman's method

[2] = biological target: Cholinesterase (Equus caballus) (UniProt P81908); settings: at 2 mg/mL
Cholinesterase (Equus caballus), sequence (P81908 whole entry): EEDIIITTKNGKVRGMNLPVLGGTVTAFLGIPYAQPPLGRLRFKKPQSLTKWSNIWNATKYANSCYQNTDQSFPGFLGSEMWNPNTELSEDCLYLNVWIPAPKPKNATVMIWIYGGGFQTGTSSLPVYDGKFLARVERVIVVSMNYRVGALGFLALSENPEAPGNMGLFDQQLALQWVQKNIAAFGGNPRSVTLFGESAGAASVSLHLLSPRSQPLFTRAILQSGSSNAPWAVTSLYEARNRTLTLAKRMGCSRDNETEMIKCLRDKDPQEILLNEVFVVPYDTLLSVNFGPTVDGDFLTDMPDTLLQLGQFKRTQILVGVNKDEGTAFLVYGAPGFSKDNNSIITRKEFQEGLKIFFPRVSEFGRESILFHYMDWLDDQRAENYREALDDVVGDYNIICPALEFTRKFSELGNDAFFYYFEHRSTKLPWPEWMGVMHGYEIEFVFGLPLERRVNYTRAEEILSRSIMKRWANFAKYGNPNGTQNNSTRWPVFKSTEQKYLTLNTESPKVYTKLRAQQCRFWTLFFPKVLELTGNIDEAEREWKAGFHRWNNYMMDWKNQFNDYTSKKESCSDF
Description: Inhibition of horse BChE at 2 mg/ml by Ellman's method

Acetylcholinesterase (Electrophorus electricus), sequence (O42275 24-633 limits assumed): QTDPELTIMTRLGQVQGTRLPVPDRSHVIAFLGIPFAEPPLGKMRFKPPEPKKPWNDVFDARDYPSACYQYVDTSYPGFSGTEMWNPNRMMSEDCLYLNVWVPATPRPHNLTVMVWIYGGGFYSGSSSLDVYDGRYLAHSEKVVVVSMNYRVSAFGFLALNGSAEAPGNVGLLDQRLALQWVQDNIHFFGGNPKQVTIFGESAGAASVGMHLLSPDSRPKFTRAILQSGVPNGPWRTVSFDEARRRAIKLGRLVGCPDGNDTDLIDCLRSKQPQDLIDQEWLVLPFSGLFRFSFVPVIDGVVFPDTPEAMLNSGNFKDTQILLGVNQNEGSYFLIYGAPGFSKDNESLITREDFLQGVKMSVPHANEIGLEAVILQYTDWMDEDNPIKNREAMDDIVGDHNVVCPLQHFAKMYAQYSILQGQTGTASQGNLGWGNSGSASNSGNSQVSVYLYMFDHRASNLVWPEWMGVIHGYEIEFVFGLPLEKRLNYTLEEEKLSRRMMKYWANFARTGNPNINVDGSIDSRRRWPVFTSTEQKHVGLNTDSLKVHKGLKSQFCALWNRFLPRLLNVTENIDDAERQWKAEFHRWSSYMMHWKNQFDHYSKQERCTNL

SMILES | inhibition [1] | inhibition [2]
CN1CCc2cc(O)c(O)cc2C1Cc1cc(O)c(O)cc1Br (racemic) | 27.2% | 13.4%
CC[C@@H](C)[C@@H](O)[C@H](C)C(=O)[C@H](C)/C=C(\C)C[C@H](C)[C@@H]1OC(=O)[C@H]1CC | 2.88% | 99.8%
CC(C)(S)[C@H](N)C(=O)O | 11.7% | -6.36%
OC[C@@H]1CCCN2CCCC[C@H]12 | 1.61% | -7.44%
O=c1oc2ccccc2c(O)c1Cc1c(O)c2ccccc2oc1=O | 12.3% | 5.48%
CN1[C@H]2C[C@H](OC(=O)[C@H](CO)c3ccccc3)C[C@@H]1[C@@H](O)C2 | 9.43% | 8.08%
CCCC(=O)O[C@@H]1[C@@H](C)[C@@]2(O)[C@@H](C=C(CO)C[C@]3(O)C(=O)C(C)=C[C@@H]23)[C@@H]2C(C)(C)[C@]12OC(=O)CCC (stereo in doubt; form 1) | 22.5% | 0.87%
CN1[C@@H]2CC[C@H]1C[C@@H](OC(=O)[C@H](CO)c1ccccc1)C2 | 15.5% | 3.5%
CC1(C)CC[C@]2(C(=O)O)CC[C@]3(C)C(=CC[C@@H]4[C@@]5(C)CC[C@H](O)C(C)(C)[C@@H]5CC[C@]43C)[C@@H]2C1 | 10.2% | 0.92%
C=C[C@@](C)(O)CC[C@H]1C(=C)CC[C@H]2C(C)(C)CCC[C@]12C | 21.8% | 0.47%
CCCC(=O)O[C@@H]1[C@@H](C)[C@@]2(O)[C@@H](C=C(CO)C[C@]3(O)C(=O)C(C)=C[C@@H]23)[C@@H]2C(C)(C)[C@]12OC(=O)CCC (stereo in doubt; form 2) | 19.5% | 5.87%
CC[C@H](C)C(=O)O[C@H]1CCC=C2C=C[C@H](C)[C@H](CC[C@@H]3C[C@@H](O)CC(=O)O3)[C@H]21 | -9.46% | 7.39%
CN1CCc2cc3c(cc2[C@H]1[C@@H]1OC(=O)c2c1ccc1c2OCO1)OCO3 | 20.7% | 0.63%
C=C[C@@](C)(/C=C/c1ccc(O)cc1)CCC=C(C)C | -7.92% | 13.4%
CC(C)[C@@]1(NC(=O)[C@@H]2C[C@@H]3c4cccc5[nH]cc(c45)C[C@H]3N(C)C2)O[C@@]2(O)[C@@H]3CCCN3C(=O)[C@H](Cc3ccccc3)N2C1=O | -1.54% | 0.35%
CN1Cc2c(ccc3c2OCO3)[C@@H]2[C@H]1c1cc3c(cc1C[C@@H]2O)OCO3 | 29.8% | 6.72%
C[C@H]1CC[C@@H]2[C@@H](C)[C@H]3[C@H](C[C@H]4[C@@H]5CC=C6C[C@@H](O[C@@H]7O[C@H](CO)[C@H](O)[C@H](O[C@@H]8O[C@H](CO)[C@@H](O)[C@H](O)[C@H]8O)[C@H]7O[C@@H]7O[C@@H](C)[C@H](O)[C@@H](O)[C@H]7O)CC[C@]6(C)[C@H]5CC[C@]34C)N2C1 | 9.15% | 12.2%
C[C@@H]1CC[C@H]2[C@](C)(CO)[C@@H](O)CC[C@]2(C)[C@@]12CC[C@@](CO)(CCO)O2 | -4.53% | 6.75%
CCCC[C@@H](C)[C@@H](OC(=O)C[C@@H](CC(=O)O)C(=O)O)[C@H](C[C@@H](C)CCCCCC[C@@H](O)C[C@H](O)[C@H](C)N)OC(=O)C[C@@H](CC(=O)O)C(=O)O | -8.37% | 15.1%
CC1(C)[C@@H](O)C[C@H]2[C@](C)(O)[C@@H]3CC[C@@H]4[C@@H](O)[C@@]3(C[C@@H](O)[C@@]21O)C[C@@]4(C)O | -8.91% | 4.52%
CCCCCCCCCCCCCC[C@@H](O)[C@@H](O)[C@H](CO)NC(C)=O | 0.15% | 3.97%
O=c1oc2c(O)c(O)cc3c(=O)oc4c(O)c(O)cc1c4c23 | -6.13% | 4.4%
COc1cccc2c1C(=O)c1c(O)c3c(c(O)c1C2=O)C[C@@](O)(C(C)=O)C[C@@H]3O[C@H]1C[C@H](N)[C@H](O)[C@H](C)O1 | 18.1% | -0.13%

SMILES | inhibition [1] | inhibition [2]
CCN1C[C@]2(COC)[C@H](O)C[C@H](OC)[C@@]34[C@@H]5C[C@@]6(O)[C@H](OC(=O)c7ccccc7)[C@@H]5[C@@](OC(C)=O)([C@@H]([C@H](OC)[C@H]23)[C@@H]14)[C@@H](O)[C@@H]6OC | 17.6% | 3.01%
C[N+]1([O-])[C@@H]2C[C@H](OC(=O)[C@H](CO)c3ccccc3)C[C@@H]1[C@H]1O[C@H]12 (stereo not given in full) | -6.51% | -1.85%
COc1c2c3c4c(c(OC)c(=O)c5c(O)cc(OC)c(c6c(OC)cc(O)c(c1=O)c63)c54)[C@@H](C(C)=O)[C@@](C)(O)C2 (relative stereo) | 5.56% | 1.53%
COc1cc2oc(=O)ccc2cc1O | 28.1% | 3.87%
C/C=C1\CN2CC[C@]34C(=C(CC=O)[C@H]1C[C@H]23)Nc1ccccc14 | 21.1% | 12%
COc1cc2ccc(=O)oc2cc1O | 4.78% | 0.6%
COc1c(C)c2c(c(O)c1C/C=C(\C)CCC(=O)O)C(=O)OC2 | -6.25% | -7.04%
C[N+]1(C)CCC[C@H]1C(=O)[O-] | -9.74% | -3.98%
N[C@H]1CONC1=O | 1.18% | -5.13%
COc1cc2c(cc1OC)[C@H]1[C@@H](C)c3ccc(OC)c(OC)c3CN1CC2 | 13.9% | -0.53%
COc1cc2c(cc1OC)[C@H](C)NCC2 | -3.39% | -4.57%
CC[C@H]1CN2CCc3cc(OC)c(OC)cc3[C@@H]2C[C@@H]1C[C@H]1NCCc2cc(O)c(OC)cc21 | 11.9% | -6.9%
CC1=CC(=O)c2ccccc2C1=O | 17.8% | -1.75%
COc1cc2c(c(OC)c1OC)-c1ccc(OC)c(=O)cc1[C@@H](NC(C)=O)CC2 | 0.14% | 0.1%
CO[C@H]1C[C@@H]2CC[C@@H](C)[C@@](O)(O2)C(=O)C(=O)N2CCCC[C@H]2C(=O)O[C@H]([C@H](C)C[C@@H]2CC[C@@H](O)[C@H](OC)C2)CC(=O)[C@H](C)/C=C(\C)[C@@H](O)[C@@H](OC)C(=O)[C@H](C)C[C@H](C)/C=C/C=C/C=C/1C | 18.7% | 4.03%
C/C=C(\C)C(=O)O[C@H]1CC(C)=CC(=O)[C@@]2(C)CC[C@@](O)(C(C)C)[C@H]12 | 16.6% | -1.66%
COc1cc(O)c2c(=O)c(O)c(-c3ccc(O)c(O)c3)oc2c1 | 23.7% | 3.5%
Cc1nccc2c1[nH]c1cc(O)ccc12 | 46.1% | 35.9%
COC1=CC(=O)O[C@@H](CCc2ccc3c(c2)OCO3)C1 | 24.8% | 3.66%
C[C@@H]1CC[C@]2(NC1)O[C@H]1C[C@H]3[C@@H]4CC=C5C[C@@H](O)CC[C@]5(C)[C@H]4CC[C@]3(C)[C@H]1[C@@H]2C | 1.63% | 53.7%
CO[C@@H]1[C@H](O)C[C@@H](O[C@@H]2C[C@H](Oc3cc4cc5c(c(O)c4c(O)c3C)C(=O)[C@@H](O[C@H]3C[C@@H](O[C@H]4C[C@@H](O[C@H]6C[C@](C)(O)[C@@H](OC(C)=O)[C@H](C)O6)[C@H](O)[C@@H](C)O4)[C@H](O)[C@@H](C)O3)[C@H]([C@H](OC)C(=O)[C@@H](O)[C@@H](C)O)C5)O[C@H](C)[C@@H]2OC(C)=O)O[C@@H]1C | 5.47% | 3.95%
COc1ccc2c(c1OC)C(=O)O[C@H]2[C@@H]1c2cc3c(cc2CCN1C)OCO3 | 9.75% | -1.4%

— ChEMBL document CHEMBL2163249, “Exploration of natural compounds as sources of new bifunctional scaffolds targeting cholinesterases and beta amyloid aggregation: the case of chelerythrine” (Bioorg Med Chem, 2012)
